Test results as given in ChEMBL document CHEMBL5120788, “Structure-activity relationship studies of functionalized aromatic peptidomimetics as neurolysin activators” (Bioorg Med Chem Lett, 2022).

Experiments:
[1] = target: Neurolysin, mitochondrial (Rattus norvegicus) (UniProt P42676); assay: Activation of recombinant rat Nln assessed as maximal efficacy using MCA-Pro-Leu-Gly-Pro-D-Lys (DNP)-OH as substrate preincubated for 10 mins followed by substrate addition and measured after 20 mins by fluorescence based assay relative to control; conditions: filed as activator, time 30.0 min
[2] = target: Neurolysin, mitochondrial (Rattus norvegicus, UniProt P42676); assay: Activation of recombinant rat Nln using MCA-Pro-Leu-Gly-Pro-D-Lys (DNP)-OH as substrate preincubated for 10 mins followed by substrate addition and measured after 20 mins by fluorescence based assay
[3] = Permeability of compound in mouse BEND3 cells co-cultured with mouse primary astrocytes measured upto 120 mins by LC-MS/MS; assay type: ADME, cell-based; conditions: 2 h

Sequence of Neurolysin, mitochondrial (P42676 whole entry): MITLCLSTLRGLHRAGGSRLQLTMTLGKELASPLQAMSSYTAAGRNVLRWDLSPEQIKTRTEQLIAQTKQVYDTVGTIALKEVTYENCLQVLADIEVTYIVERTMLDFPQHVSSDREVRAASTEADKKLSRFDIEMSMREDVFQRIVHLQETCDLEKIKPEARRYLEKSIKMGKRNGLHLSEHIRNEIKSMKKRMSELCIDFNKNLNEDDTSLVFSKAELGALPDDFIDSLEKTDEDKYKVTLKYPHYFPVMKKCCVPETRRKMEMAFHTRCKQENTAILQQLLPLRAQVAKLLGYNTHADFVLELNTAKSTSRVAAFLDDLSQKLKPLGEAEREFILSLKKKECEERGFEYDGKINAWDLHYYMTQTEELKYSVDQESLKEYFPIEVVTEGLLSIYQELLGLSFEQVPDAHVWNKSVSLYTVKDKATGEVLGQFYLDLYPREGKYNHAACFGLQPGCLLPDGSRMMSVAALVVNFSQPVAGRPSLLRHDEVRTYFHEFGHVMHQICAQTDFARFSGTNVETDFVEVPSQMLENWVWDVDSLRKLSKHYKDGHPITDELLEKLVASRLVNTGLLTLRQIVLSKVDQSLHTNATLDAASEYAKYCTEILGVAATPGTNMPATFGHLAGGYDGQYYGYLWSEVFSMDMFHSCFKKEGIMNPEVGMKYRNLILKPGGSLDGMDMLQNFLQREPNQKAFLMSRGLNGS
Sequence of Neurolysin, mitochondrial (Rattus norvegicus) (P42676 38-704 limits assumed): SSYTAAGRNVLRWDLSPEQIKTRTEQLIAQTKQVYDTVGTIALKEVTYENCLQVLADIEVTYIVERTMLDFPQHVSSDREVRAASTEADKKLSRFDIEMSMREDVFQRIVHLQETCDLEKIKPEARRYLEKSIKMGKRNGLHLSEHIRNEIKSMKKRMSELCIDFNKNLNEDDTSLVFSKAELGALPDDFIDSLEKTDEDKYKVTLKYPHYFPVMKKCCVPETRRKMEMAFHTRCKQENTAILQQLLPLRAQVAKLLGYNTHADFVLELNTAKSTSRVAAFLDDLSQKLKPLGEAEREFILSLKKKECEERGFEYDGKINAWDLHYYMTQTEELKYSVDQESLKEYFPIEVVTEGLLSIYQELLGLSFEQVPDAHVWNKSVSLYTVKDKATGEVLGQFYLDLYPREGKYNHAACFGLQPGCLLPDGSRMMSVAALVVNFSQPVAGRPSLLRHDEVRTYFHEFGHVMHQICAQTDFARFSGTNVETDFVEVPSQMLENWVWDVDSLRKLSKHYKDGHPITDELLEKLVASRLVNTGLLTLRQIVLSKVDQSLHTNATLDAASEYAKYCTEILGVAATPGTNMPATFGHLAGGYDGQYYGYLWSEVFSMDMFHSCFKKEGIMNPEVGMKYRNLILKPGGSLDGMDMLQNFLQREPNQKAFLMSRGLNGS

Structure (SMILES)	Emax [1]	EC50 [2]	permeability [3]
N[C@@H](Cc1c[nH]cn1)C(=O)Nc1cc(C(F)(F)F)cc(C(F)(F)F)c1	633%	279 µM	–
N[C@H](Cc1c[nH]cn1)C(=O)Nc1ccccc1F	331%	78.2 µM	–
COc1cccc(NC(=O)[C@H](N)Cc2c[nH]cn2)c1	478%	121 µM	–
COc1ccc(NC(=O)[C@@H](N)Cc2c[nH]cn2)cc1	582%	241 µM	–
N[C@@H](Cc1c[nH]cn1)C(=O)Nc1ccc(F)cc1	488%	136 µM	–
COc1ccc(NC(=O)[C@H](N)Cc2c[nH]cn2)cc1	540%	214 µM	–
COc1cc(NC(=O)[C@@H](N)Cc2c[nH]cn2)cc(OC)c1OC	436%	117 µM	–
COc1cccc(NC(=O)[C@@H](N)Cc2c[nH]cn2)c1	454%	105 µM	–
N[C@@H](Cc1c[nH]cn1)C(=O)Nc1cc(F)cc(F)c1	431%	90.6 µM	–

Stronger by EC50 [2], values ahead:

Emax [1]	EC50 [2]	permeability [3]	Structure (SMILES)
335%	32.2 µM	–	N[C@@H](Cc1c[nH]cn1)C(=O)Nc1ccc(C(F)(F)F)cc1
426%	45.1 µM	–	COc1ccccc1NC(=O)[C@@H](N)Cc1c[nH]cn1
463%	52.1 µM	Permeable	COc1cc(NC(=O)[C@@H](N)Cc2c[nH]cn2)cc(OC)c1
403%	36.1 µM	–	N[C@H](Cc1c[nH]cn1)C(=O)Nc1ccc(F)cc1
368%	25.2 µM	–	N[C@@H](Cc1c[nH]cn1)C(=O)Nc1ccc(C(F)(F)F)cc1C(F)(F)F
312%	28.6 µM	–	N[C@@H](Cc1c[nH]cn1)C(=O)Nc1cccc(C(F)(F)F)c1
382%	24.8 µM	–	N[C@@H](Cc1c[nH]cn1)C(=O)Nc1cccc(F)c1
370%	26.7 µM	–	N[C@@H](Cc1c[nH]cn1)C(=O)Nc1c(F)cc(Br)cc1F
428%	53.5 µM	–	COc1ccccc1NC(=O)[C@H](N)Cc1c[nH]cn1
396%	30.9 µM	–	N[C@H](Cc1c[nH]cn1)C(=O)Nc1cccc(F)c1
362%	22.8 µM	–	N[C@H](Cc1c[nH]cn1)C(=O)Nc1cccc(C(F)(F)F)c1
268%	37.5 µM	–	N[C@@H](Cc1c[nH]cn1)C(=O)Nc1ccccc1F
325%	15.6 µM	Permeable	N[C@H](Cc1c[nH]cn1)C(=O)Nc1ccc(C(F)(F)F)cc1
